In US20240132955A1, “BENIGN SCAR-FORMING CLEAVABLE LINKERS” (Ultima Genomics, Inc., priority 2021, published 2024):

Legend:
Type in all cases: biochemical
[1] = system: template nucleic acid sequence; assay: Sequencing assays with different capping reagents (Example 6, FIG. 11); conditions: for fluorescence intensities for subsequent incorporation steps: capping between flows, compared with assay without capping reagents
Description: Extension and sequencing performance were tested for a set of labeled nucleotides and capping reagents. The labeled nucleotides used in this example consisted of the dye-linkers as shown in FIG. 9A on each of the four nucleotides. A set of sequencing assays were performed by extending a primer against a template nucleic acid sequence in the presence of alternating flows of single fluorescently labeled nucleotides provided as cycles of U, A, C, and then G. In between each flow, the fluorescent labels were detected, cleaved, and optionally capped with one of ethyl propiolate (EP), iodoacetamide (IAc), methyl methanethiosulfonate (MMTS), or dipyridyl disulfide (DPDS). Each labeled nucleotide flow was then followed by a “dark tap” flow consisting of 100% unlabeled nucleotides to maintain phasing.
FIG. 11 summarizes the results of the sequencing assays in table 1100. Table 1100 provides the results of uridine, adenosine, cytidine, and guanosine incorporation steps performed without any capping agents or in the presence of different capping agents. Assay A illustrates results from sequencing assays performed without capping reagents. Following a high-efficiency first nucleotide incorporation step with labeled uridine, subsequent nucleotide incorporation steps were suppressed, including subsequent uridine additions.

[2] = system: template strand comprising the 3′ sequence TCAGTGGTTG; assay: Sequencing assay with capping reagent DPDS in U dark tap flows (Example 5); conditions: DPDS only in U dark tap flows; 100% labeled U, 10% A, 20% C, 10% G
Excerpt: In this example, a set of labeled nucleotide reagents were contacted to a primer hybridized to a template strand comprising the 3′ sequence TCAGTGGTTG under conditions suitable for extension. Fluorescently labeled adenosine, cytidine, and guanosine nucleotides were of the structure indicated in FIG. 10A, while labeled uridine nucleotides were of the structure provided in FIG. 10B. Different canonical nucleotide types were provided in separate, sequential flows, starting with uridine (U), followed by adenosine (A), cytidine (C), and finally guanosine (G), before repeating the cycle beginning again with U. Flows contained anywhere from 10% to 100% labeled nucleotides, with the remaining nucleotides provided in their natural, unlabeled form. In between each flow, the fluorescent labels were detected, cleaved, and optionally capped. Each labeled nucleotide flow was then followed by a “dark tap” flow consisting of 100% unlabeled nucleotides in order to maintain phasing.
FIG. 10E summarizes the sequencing results of an assay utilizing flows with 100% labeled U, 10% labeled A, 20% labeled C, 10% labeled G, and the capping reagent DPDS. provided in only the U “dark tap” nucleotide flows. […] This was likely due to capping reagent cleavage from the nucleotide scars, as the linker cleavage reagent was likely also active in removing caps from scar moieties. […]

[3] = system: template nucleic acid starting with AGTCTTTGGGTT; assay: Sequencing assays with capping or immolating linkers (Example 9, FIG. 16); conditions: DPDS in U dark tap flows; 100% labeled U, 10% A, 20% C, 10% G; compared to FIG. 16A
Description: In this example, a set of sequencing assays were performed by extending a primer against the same template nucleic acid starting with AGTCTTTGGGTT in the presence of alternating flows of single fluorescently labeled nucleotides provided as cycles of U, A, C, and then G. In between each flow, the fluorescent labels were detected, cleaved, and optionally capped with dipyridyl disulfide (DPDS). Each labeled nucleotide flow was then followed by a “dark tap” flow consisting of 100% unlabeled nucleotides to maintain phasing. Furthermore, some assays utilized nucleotides with immolating linkers.
In each figure, the y-axes provide fluorescence intensity following labeled nucleotide incorporation, and the four plots (from top to bottom) separately provide the results of uridine, adenosine, cytidine, and guanosine incorporation steps, with individual cycles progressing from left to right. In particular, a closer look is taken at the first 4 flow-cycles of U-A-C-G, where nucleotides are expected to be incorporated in the order of T-C (cycle 1; U, A, C, G flows being a complete single cycle), A-G (cycle 2), AAA-CCC (cycle 3), AA (cycle 4). Here nucleotides incorporated in each U-A-C-G flow-cycle are separated with square brackets. […]

In the case of `C#CC(=O)OCC` [EP, ethyl propiolate], the “fluorescence intensities for subsequent incorporation steps” value [1] is reported as “high intensities”.

`NC(=O)CI` [IAc, iodoacetamide] was tested, and the “fluorescence intensities for subsequent incorporation steps” value [1] was “high intensities”.

With dipyridyl disulfide [DPDS] the “incorporation efficiency for the next flow (A)” value [2] was “increased the incorporation efficiency for the next flow”, the “labeled A incorporation” value [3] was “greatly enhanced” and the “effectiveness as capping reagent” value ([1]; among EP, IAc, MMTS, DPDS) was “most effective”. For the same compound, the “fluorescence intensities from subsequent nucleotide incorporations, comparison among capping assays” value ([1]; assays B-E) was “highest intensities” and the “fluorescence intensities for subsequent incorporation steps” value [1] was “high intensities”.
